# Test results taken from ChEMBL document CHEMBL1926681, “Novel inhibitors of epidermal growth factor receptor: (4-(Arylamino)-7H-pyrrolo[2,3-d]pyrimidin-6-yl)(1H-indol-2-yl)methanones and (1H-indol-2-yl)(4-(phenylamino)thieno[2,3-d]pyrimidin-6-yl)methanones” (Bioorg Med Chem, 2012).
# Activity calls are given as the source filed them. The calls are words filed in the database; no cut-off is given here.
# Tests used:
# [1] = Cytotoxicity against human MEXF 276L cells after 4 days by propidium iodide staining-based fluorometric analysis; format: functional, cell-based; conditions: MEXF276L, 96 h
# [2] = test system: CAL-27; experiment: Cytotoxicity against human CAL27 cells after 4 days by propidium iodide staining-based fluorometric analysis; format: functional, cell-based; conditions: CAL-27, 96 h
# [3] = Cytotoxicity against human MAXF 401NL cells after 4 days by propidium iodide staining-based fluorometric analysis; format: functional, cell-based; conditions: 96 h
# [4] = test system: CWR22R; experiment: Cytotoxicity against human 22Rv1 cells after 4 days by propidium iodide staining-based fluorometric analysis; format: functional, cell-based; conditions: 22Rv1, 96 h
# [5] = test system: PANC-1; experiment: Cytotoxicity against human PANC1 cells after 4 days by propidium iodide staining-based fluorometric analysis; format: functional, cell-based; conditions: PANC-1, 96 h
# [6] = Cytotoxicity against human PAXF 1657L cells after 4 days by propidium iodide staining-based fluorometric analysis; format: functional, cell-based; conditions: 96 h
# [7] = Cytotoxicity against human LXFL 529L cells after 4 days by propidium iodide staining-based fluorometric analysis; format: functional, cell-based; conditions: 96 h
# [8] = test system: DU-145; experiment: Cytotoxicity against human DU145 cells after 4 days by propidium iodide staining-based fluorometric analysis; format: functional, cell-based; conditions: DU-145, 96 h
# [9] = Cytotoxicity against human PC3M cells after 4 days by propidium iodide staining-based fluorometric analysis; format: functional, cell-based; conditions: PC-3M, 96 h
# [10] = Cytotoxicity against human LXFA 289L cells after 4 days by propidium iodide staining-based fluorometric analysis; format: functional, cell-based; conditions: 96 h
# [11] = test system: MKN-45; experiment: Cytotoxicity against human MKN45 cells after 4 days by propidium iodide staining-based fluorometric analysis; format: functional, cell-based; conditions: MKN-45, 96 h
# [12] = test system: NCI-H460; experiment: Cytotoxicity against human H460 cells after 4 days by propidium iodide staining-based fluorometric analysis; format: functional, cell-based; conditions: NCI-H460, 96 h
# [13] = test system: OVCAR-3; experiment: Cytotoxicity against human OVCAR3 cells after 4 days by propidium iodide staining-based fluorometric analysis; format: functional, cell-based; conditions: OVCAR-3, 96 h
# [14] = Cytotoxicity against human PXF 1118L cells after 4 days by propidium iodide staining-based fluorometric analysis; format: functional, cell-based; conditions: 96 h
# [15] = Cytotoxicity against human DIFI cells after 4 days by propidium iodide staining-based fluorometric analysis; format: functional, cell-based; conditions: 96 h
# [16] = Cytotoxicity against human MEXF 462NL cells after 4 days by propidium iodide staining-based fluorometric analysis; format: functional, cell-based; conditions: 96 h
# [17] = test system: HT-29; experiment: Cytotoxicity against human HT-29 cells after 4 days by propidium iodide staining-based fluorometric analysis; format: functional, cell-based; conditions: HT-29, 96 h
# [18] = biological target: Hepatocyte growth factor receptor (Homo sapiens) (UniProt P08581); experiment: Inhibition of MET using poly(Ala, Glu, Lys, Tyr) as substrate and [gamma33P]ATP at 1 uM after 60 mins by scintillation counting
# [19] = Cytotoxicity against human PAXF 546L cells after 4 days by propidium iodide staining-based fluorometric analysis; format: functional, cell-based; conditions: 96 h
# [20] = Cytotoxicity against human GXF251L cells after 4 days by propidium iodide staining-based fluorometric analysis; format: functional, cell-based; conditions: GXF 251L, 96 h
# [21] = biological target: T1, Epidermal growth factor receptor (Homo sapiens, UniProt P00533); experiment: Inhibition of EGFR using poly(Glu,Tyr)4:1 as substrate and [gamma33P]ATP after 60 mins by scintillation counting
# T1 sequence (P00533 whole entry): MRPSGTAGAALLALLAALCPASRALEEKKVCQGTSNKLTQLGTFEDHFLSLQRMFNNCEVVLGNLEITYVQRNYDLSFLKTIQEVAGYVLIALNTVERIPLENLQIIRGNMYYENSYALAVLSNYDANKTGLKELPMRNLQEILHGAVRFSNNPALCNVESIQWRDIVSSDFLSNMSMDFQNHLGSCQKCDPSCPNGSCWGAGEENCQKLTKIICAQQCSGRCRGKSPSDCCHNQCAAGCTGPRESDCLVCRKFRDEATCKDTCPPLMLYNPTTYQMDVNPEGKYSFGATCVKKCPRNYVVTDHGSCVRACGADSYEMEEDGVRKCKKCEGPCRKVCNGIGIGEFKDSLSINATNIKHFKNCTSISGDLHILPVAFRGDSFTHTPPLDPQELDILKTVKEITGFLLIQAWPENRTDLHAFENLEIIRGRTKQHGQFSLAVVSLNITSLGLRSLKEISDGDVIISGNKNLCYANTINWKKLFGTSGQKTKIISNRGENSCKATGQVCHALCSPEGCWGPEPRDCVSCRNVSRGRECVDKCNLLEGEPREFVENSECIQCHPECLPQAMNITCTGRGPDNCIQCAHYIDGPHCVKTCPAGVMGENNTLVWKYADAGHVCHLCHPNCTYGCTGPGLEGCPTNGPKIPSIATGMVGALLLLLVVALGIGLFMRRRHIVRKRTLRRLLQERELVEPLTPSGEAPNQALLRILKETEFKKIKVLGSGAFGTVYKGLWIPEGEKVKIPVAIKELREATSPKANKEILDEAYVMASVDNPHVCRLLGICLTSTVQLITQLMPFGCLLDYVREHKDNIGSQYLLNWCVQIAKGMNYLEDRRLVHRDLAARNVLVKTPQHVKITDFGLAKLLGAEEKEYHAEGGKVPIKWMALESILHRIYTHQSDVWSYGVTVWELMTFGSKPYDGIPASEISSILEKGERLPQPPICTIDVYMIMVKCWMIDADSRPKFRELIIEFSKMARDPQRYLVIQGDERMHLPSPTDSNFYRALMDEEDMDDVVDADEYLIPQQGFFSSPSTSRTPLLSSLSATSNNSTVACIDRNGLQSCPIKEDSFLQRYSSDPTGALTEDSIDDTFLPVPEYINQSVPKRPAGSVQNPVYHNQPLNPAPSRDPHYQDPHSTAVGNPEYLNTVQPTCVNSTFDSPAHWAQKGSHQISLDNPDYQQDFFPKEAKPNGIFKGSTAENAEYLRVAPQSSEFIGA
# [22] = Cytotoxicity against human BXF T24 cells after 4 days by propidium iodide staining-based fluorometric analysis; format: functional, cell-based; conditions: T-24, 96 h
# [23] = Cytotoxicity against human MDA231 cells after 4 days by propidium iodide staining-based fluorometric analysis; format: functional, cell-based; conditions: MDA-MB-231, 96 h
# [24] = Cytotoxicity against human BXF 1352L cells after 4 days by propidium iodide staining-based fluorometric analysis; format: functional, cell-based; conditions: 96 h
# [25] = biological target: T1, Epidermal growth factor receptor; experiment: Inhibition of EGFR autophosphorylation in EGF-stimulated human A431 cells after 1 hr by immunoblotting; format: cell-based, A-431
# [26] = test system: LNCaP; experiment: Cytotoxicity against human LNCAP cells after 4 days by propidium iodide staining-based fluorometric analysis; format: functional, cell-based; conditions: 96 h
# [27] = Cytotoxicity against human RXF 393NL cells after 4 days by propidium iodide staining-based fluorometric analysis; format: functional, cell-based; conditions: 96 h
# [28] = Cytotoxicity against human LIXF 575L cells after 4 days by propidium iodide staining-based fluorometric analysis; format: functional, cell-based; conditions: 96 h
# [29] = biological target: Tyrosine-protein kinase ABL1 (Homo sapiens) (UniProt P00519); experiment: Inhibition of ABL1 using poly(Ala, Glu, Lys, Tyr) as substrate and [gamma33P]ATP at 1 uM after 60 mins by scintillation counting
# Tyrosine-protein kinase ABL1 (Homo sapiens), sequence (P00519 whole entry): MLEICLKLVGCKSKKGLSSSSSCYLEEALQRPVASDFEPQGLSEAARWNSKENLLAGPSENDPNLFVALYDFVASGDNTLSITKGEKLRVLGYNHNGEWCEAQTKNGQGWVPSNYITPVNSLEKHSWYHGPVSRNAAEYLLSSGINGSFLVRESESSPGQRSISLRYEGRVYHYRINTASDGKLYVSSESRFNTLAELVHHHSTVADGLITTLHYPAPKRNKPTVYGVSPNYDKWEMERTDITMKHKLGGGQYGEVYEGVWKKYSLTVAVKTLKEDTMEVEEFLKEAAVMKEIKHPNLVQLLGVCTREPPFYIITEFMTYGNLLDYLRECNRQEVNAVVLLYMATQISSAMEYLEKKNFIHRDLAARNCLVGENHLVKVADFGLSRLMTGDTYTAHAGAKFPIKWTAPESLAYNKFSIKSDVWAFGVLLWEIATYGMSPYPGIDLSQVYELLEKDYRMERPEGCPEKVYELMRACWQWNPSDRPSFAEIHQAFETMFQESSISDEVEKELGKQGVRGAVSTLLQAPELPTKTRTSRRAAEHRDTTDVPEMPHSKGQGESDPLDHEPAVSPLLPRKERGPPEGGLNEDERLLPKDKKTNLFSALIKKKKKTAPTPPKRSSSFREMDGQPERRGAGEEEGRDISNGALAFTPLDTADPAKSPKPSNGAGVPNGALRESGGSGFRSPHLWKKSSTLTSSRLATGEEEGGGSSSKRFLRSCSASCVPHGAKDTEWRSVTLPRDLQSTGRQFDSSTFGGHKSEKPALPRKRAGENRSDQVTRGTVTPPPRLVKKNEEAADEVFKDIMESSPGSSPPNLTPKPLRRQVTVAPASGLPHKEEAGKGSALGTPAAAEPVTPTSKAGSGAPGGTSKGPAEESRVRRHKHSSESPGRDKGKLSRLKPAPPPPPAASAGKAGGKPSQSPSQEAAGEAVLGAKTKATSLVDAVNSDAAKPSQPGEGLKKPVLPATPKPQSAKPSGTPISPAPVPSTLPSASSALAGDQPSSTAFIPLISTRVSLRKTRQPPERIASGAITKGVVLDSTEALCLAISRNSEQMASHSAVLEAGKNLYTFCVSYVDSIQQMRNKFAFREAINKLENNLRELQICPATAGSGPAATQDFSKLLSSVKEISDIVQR
# [30] = Cytotoxicity against human PXF 1752L cells after 4 days by propidium iodide staining-based fluorometric analysis; format: functional, cell-based; conditions: 96 h
# [31] = Cytotoxicity against human RXF 486L cells after 4 days by propidium iodide staining-based fluorometric analysis; format: functional, cell-based; conditions: 96 h
# [32] = test system: MCF7; experiment: Cytotoxicity against human MCF7 cells after 4 days by propidium iodide staining-based fluorometric analysis; format: functional, cell-based; conditions: MCF7, 96 h
# [33] = Cytotoxicity against human UXF 1138L cells after 4 days by propidium iodide staining-based fluorometric analysis; format: functional, cell-based; conditions: 96 h
# [34] = Cytotoxicity against human CXF 269L cells after 4 days by propidium iodide staining-based fluorometric analysis; format: functional, cell-based; conditions: 96 h
# [35] = Cytotoxicity against human PXF 698L cells after 4 days by propidium iodide staining-based fluorometric analysis; format: functional, cell-based; conditions: 96 h
# [36] = test system: TE-671; experiment: Cytotoxicity against human TE671 cells after 4 days by propidium iodide staining-based fluorometric analysis; format: functional, cell-based; conditions: TE-671, 96 h
# [37] = test system: HCT-116; experiment: Cytotoxicity against human HCT116 cells after 4 days by propidium iodide staining-based fluorometric analysis; format: functional, cell-based; conditions: HCT-116, 96 h
# [38] = Cytotoxicity against human OVXF 899L cells after 4 days by propidium iodide staining-based fluorometric analysis; format: functional, cell-based; conditions: 96 h
# [39] = Cytotoxicity against human BXF 1218L cells after 4 days by propidium iodide staining-based fluorometric analysis; format: functional, cell-based; conditions: 96 h
# [40] = Cytotoxicity against human MEXF 1341L cells after 4 days by propidium iodide staining-based fluorometric analysis; format: functional, cell-based; conditions: 96 h
# [41] = Cytotoxicity against human LXFA 629L cells after 4 days by propidium iodide staining-based fluorometric analysis; format: functional, cell-based; conditions: 96 h
# [42] = test system: SAOS-2; experiment: Cytotoxicity against human Saos2 cells after 4 days by propidium iodide staining-based fluorometric analysis; format: functional, cell-based; conditions: SAOS-2, 96 h, read-out: IC50
# [43] = Cytotoxicity against human LXFL 1121L cells after 4 days by propidium iodide staining-based fluorometric analysis; format: functional, cell-based; conditions: 96 h
# [44] = Cytotoxicity against human LXFA 526L cells after 4 days by propidium iodide staining-based fluorometric analysis; format: functional, cell-based; conditions: 96 h
# [45] = biological target: T1, Epidermal growth factor receptor; experiment: Inhibition of EGFR using poly(Glu,Tyr)4:1 as substrate and [gamma33P]ATP at 1 uM after 60 mins by scintillation counting
# [46] = test system: RKO; experiment: Cytotoxicity against human RKO cells after 4 days by propidium iodide staining-based fluorometric analysis; format: functional, cell-based; conditions: 96 h
# [47] = biological target: Receptor tyrosine-protein kinase erbB-2 (Homo sapiens) (UniProt P04626); experiment: Inhibition of Erbb2 using poly(Glu,Tyr)4:1 as substrate and [gamma33P]ATP at 1 uM after 60 mins by scintillation counting
# Receptor tyrosine-protein kinase erbB-2 (Homo sapiens), sequence (P04626 whole entry): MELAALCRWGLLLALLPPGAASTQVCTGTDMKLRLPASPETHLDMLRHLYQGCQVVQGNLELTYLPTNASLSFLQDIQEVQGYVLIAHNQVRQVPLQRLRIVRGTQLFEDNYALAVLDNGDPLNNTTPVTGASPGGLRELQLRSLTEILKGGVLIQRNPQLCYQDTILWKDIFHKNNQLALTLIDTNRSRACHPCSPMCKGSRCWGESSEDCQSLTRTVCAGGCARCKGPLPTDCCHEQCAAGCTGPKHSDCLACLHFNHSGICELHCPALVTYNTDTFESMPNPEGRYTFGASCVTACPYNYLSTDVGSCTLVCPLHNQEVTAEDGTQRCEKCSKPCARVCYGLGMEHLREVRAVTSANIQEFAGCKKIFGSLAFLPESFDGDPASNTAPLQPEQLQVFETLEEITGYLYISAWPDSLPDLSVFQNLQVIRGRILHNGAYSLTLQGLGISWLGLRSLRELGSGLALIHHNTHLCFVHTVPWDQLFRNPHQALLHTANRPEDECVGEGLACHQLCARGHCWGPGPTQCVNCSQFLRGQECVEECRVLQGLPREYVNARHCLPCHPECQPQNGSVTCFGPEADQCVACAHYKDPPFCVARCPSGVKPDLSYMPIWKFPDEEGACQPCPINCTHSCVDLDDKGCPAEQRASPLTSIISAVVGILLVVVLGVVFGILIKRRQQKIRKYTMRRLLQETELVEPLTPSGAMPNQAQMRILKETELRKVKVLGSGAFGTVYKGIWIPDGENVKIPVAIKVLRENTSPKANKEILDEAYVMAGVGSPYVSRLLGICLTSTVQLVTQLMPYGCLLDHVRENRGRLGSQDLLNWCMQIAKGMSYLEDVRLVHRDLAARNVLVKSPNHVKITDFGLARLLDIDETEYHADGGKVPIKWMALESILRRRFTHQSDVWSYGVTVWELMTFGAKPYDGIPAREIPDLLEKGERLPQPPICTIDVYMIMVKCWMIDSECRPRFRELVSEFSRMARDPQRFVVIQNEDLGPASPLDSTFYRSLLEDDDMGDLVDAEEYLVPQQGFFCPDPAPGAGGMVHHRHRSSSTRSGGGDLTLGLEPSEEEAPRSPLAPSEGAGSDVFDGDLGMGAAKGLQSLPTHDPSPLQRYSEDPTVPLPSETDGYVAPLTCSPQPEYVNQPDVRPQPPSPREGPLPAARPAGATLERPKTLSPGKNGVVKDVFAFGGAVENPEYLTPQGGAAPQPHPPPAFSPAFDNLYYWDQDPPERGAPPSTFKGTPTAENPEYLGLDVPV
# [48] = Cytotoxicity against human RXF 1781L cells after 4 days by propidium iodide staining-based fluorometric analysis; format: functional, cell-based; conditions: 96 h
# [49] = biological target: Vascular endothelial growth factor receptor 2 (Homo sapiens) (UniProt P35968); experiment: Inhibition of VEGFR2 using poly(Glu,Tyr)4:1 as substrate and [gamma33P]ATP at 1 uM after 60 mins by scintillation counting
# Vascular endothelial growth factor receptor 2 (Homo sapiens), sequence (P35968 whole entry): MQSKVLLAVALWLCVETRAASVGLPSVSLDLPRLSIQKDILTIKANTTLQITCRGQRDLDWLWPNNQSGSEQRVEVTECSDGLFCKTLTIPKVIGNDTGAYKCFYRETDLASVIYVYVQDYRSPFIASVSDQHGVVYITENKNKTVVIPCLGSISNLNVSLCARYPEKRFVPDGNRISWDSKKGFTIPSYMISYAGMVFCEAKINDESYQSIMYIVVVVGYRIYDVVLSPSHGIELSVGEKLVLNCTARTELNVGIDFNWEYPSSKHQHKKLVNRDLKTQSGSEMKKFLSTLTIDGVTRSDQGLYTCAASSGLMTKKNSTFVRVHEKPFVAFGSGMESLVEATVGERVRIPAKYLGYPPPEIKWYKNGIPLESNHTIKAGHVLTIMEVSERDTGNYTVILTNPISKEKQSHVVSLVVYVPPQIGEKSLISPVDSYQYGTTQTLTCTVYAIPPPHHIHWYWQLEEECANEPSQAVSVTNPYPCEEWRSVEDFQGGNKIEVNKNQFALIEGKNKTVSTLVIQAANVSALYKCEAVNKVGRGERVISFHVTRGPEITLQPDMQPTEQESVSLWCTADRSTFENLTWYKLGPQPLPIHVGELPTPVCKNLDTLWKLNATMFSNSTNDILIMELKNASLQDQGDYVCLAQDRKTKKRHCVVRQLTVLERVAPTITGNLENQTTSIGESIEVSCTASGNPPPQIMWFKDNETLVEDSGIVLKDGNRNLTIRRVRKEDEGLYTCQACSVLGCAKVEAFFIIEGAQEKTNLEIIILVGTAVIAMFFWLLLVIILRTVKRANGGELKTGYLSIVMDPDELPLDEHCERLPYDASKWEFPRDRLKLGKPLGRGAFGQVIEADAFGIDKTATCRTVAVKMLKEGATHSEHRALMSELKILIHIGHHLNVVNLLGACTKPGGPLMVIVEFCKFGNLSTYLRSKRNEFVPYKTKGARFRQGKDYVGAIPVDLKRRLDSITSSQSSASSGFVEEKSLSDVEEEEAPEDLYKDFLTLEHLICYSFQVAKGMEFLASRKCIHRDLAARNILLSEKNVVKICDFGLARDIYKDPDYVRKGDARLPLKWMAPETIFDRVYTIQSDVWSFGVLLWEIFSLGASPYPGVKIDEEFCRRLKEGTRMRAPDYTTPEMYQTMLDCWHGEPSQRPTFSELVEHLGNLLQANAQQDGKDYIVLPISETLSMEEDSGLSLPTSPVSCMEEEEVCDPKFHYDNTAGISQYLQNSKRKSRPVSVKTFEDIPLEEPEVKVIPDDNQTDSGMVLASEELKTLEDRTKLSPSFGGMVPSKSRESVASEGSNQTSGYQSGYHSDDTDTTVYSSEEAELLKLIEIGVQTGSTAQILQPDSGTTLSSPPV
compound,measurement,setting,value
O=C(c1cc2cc(O)ccc2[nH]1)c1cc2c(Nc3ccc(F)c(Cl)c3)ncnc2s1,IC50,[1],6.28 µM
same,IC50,[2],1.28 µM
same,IC50,[3],4.09 µM
same,IC50,[4],5.61 µM
same,IC50,[5],7.95 µM
same,IC50,[6],9.08 µM
same,IC50,[7],4.87 µM
same,IC50,[8],2.96 µM
same,IC50,[9],5.45 µM
same,IC50,[10],3.25 µM
same,IC50,[11],7.26 µM
same,IC50,[12],6 µM
same,IC50,[13],9.08 µM
same,IC50,[14],9.59 µM
same,IC50,[15],0.94 µM
same,IC50,[16],6.02 µM
same,IC50,[17],13.7 µM
same,inhibition,[18],inactive
same,IC50,[19],8.85 µM
same,IC50,[20],4.09 µM
same,IC50,[21],0.024 µM
same,IC50,[22],9.56 µM
same,IC50,[23],7.65 µM
same,IC50,[24],5.97 µM
same,IC50,[25],0.1 µM
same,IC50,[26],3.01 µM
same,IC50,[27],5.87 µM
same,IC50,[28],7.04 µM
same,inhibition,[29],inactive
same,IC50,[30],8.19 µM
same,IC50,[31],3.37 µM
same,IC50,[32],4.22 µM
same,IC50,[33],3.45 µM
same,IC50,[34],7.58 µM
same,IC50,[35],9.23 µM
same,IC50,[36],10.1 µM
same,IC50,[37],7.69 µM
same,IC50,[38],4.07 µM
same,IC50,[39],6.34 µM
same,IC50,[40],5.89 µM
same,IC50,[41],2.65 µM
same,IC50,[42],8.2 µM
same,IC50,[43],6.02 µM
same,IC50,[44],4.36 µM
same,inhibition,[45],98%
same,IC50,[46],6.01 µM
same,inhibition,[47],87%
same,IC50,[48],4.87 µM
same,inhibition,[49],10%
O=C(c1cc2ccccc2[nH]1)c1cc2c(Nc3ccc(F)c(Cl)c3)ncnc2s1,IC50,[1],10.2 µM
same,IC50,[2],2.61 µM
same,IC50,[3],3.89 µM
same,IC50,[4],5.48 µM
same,IC50,[5],7.01 µM
same,IC50,[6],17.6 µM
same,IC50,[7],8.61 µM
same,IC50,[8],4.36 µM
same,IC50,[9],5.77 µM
same,IC50,[10],6.68 µM
same,IC50,[11],12.5 µM
same,IC50,[12],5.82 µM
same,IC50,[13],8.45 µM
same,IC50,[14],17.9 µM
same,IC50,[15],1.39 µM
same,IC50,[16],8.11 µM
same,IC50,[17],7.83 µM
same,inhibition,[18],inactive
same,IC50,[19],11.6 µM
same,IC50,[20],2.76 µM
same,IC50,[21],0.00554 µM
same,IC50,[22],11.4 µM
same,IC50,[23],8.04 µM
same,IC50,[24],11.3 µM
same,IC50,[26],6.11 µM
same,IC50,[27],11.8 µM
same,IC50,[28],8.15 µM
same,inhibition,[29],inactive
same,IC50,[30],13.5 µM
same,IC50,[31],5.5 µM
same,IC50,[32],6.96 µM
same,IC50,[33],4.42 µM
same,IC50,[34],10.8 µM
same,IC50,[35],14.3 µM
same,IC50,[36],14.1 µM
same,IC50,[37],8.39 µM
same,IC50,[38],5.56 µM
same,IC50,[39],9.13 µM
same,IC50,[40],10.8 µM
same,IC50,[41],4.88 µM
same,IC50,[42],11.4 µM
same,IC50,[43],9.77 µM
same,IC50,[44],10.7 µM
same,inhibition,[45],100%
same,IC50,[46],7.29 µM
same,inhibition,[47],80%
same,IC50,[48],9.05 µM
same,inhibition,[49],15%
